# Test results taken from US20030055067A1, “Antifungal composition with enhanced bioavailability” (SCHERING CORPORATION, priority 2001, published 2003).
# Assays:
# [1] = Randomized, open-label, 4-way crossover, single-dose bioavailability and food effect study; format: in vivo, healthy subjects; settings: for 0-hour plasma concentration of posaconazole: likely carry-over from previous doses
# Text: The relative bioavailability of the posaconazole oral suspension was compared to a solid dosage form of posaconazole in healthy subjects. The first objective was to determine the relative bioavailability of posaconazole given as an oral suspension compared to an oral solid formulation when administered with a high-fat breakfast. The second objective was to determine the effect of high-fat and non-fat food relative to fasting conditions on the oral bioavailability of the compound of formula I when given as an oral suspension. Twenty healthy subjects completed this randomized, open-label, 4-way crossover, single-dose bioavailability and food effect study of posaconazole. Subjects received each of the following four treatments separated by at least a 7 day washout period: [table] Subjects were randomized to either remain fasted (Treatment A), to receive a standardized high fat breakfast (Treatment B or D) or a standardized non-fat breakfast (Treatment C). Meals were consumed in a 20-minute period prior to the morning drug administration and subjects received the appropriate treatment within 5 minute of completing the breakfast. […] The area under the plasma concentration-time curve from time zero to the final quantifiable sampling time [AUC(tf)] was calculated using the linear trapezoidal method and extrapolated to infinity (I) as follows: [formula] where C(tf) is the estimated concentration determined from linear regression at time, tf. Total body clearance was calculated by the following: CL=Dose/AUC(I) The apparent volume of distribution ([…]) was calculated from the ratio of the total body clearance to the terminal phase rate constant (K). Summary statistics were calculated for the plasma suspension formulation of the present invention compared to a prior art tablet formulation concentration-time data at each time point and the derived pharmacokinetic parameters. The original scale and log-transformed Cmax and AUC values were analyzed using an analysis of variance (ANOVA). […]
# [2] = Lipophilicity and water solubility (background statement); format: physicochemical
# [3] = system: Aspergillis, Candida, Cryptococcus, Fusarium, and other opportunistic fungi; settings: broad range of fungi; cited from earlier work
# [4] = Rate of sedimentation of the oral suspension (HPLC assay after shaking and rest); format: physicochemical; settings: after 3 days
# Method: The rate of sedimentation of the liquid suspension of the present invention was determined as set forth below. Two bottles containing the suspension of the present invention were shaken and left to rest. The bottles were then sampled immediately (time zero), then after 5 minutes, 10 minutes, 30 minutes, 60 minutes and after 72 hours (three days) post shaking. The levels of posaconazole and of the preservative (Sodium Benzoate) in these samples were assayed by HPLC. HPLC methods of detection are well-known to one of skill in the art.
structure (smiles),measurement,setting,value
CC[C@@H]([C@H](C)O)n1ncn(-c2ccc(N3CCN(c4ccc(OC[C@@H]5CO[C@@](Cn6cncn6)(c6ccc(F)cc6F)C5)cc4)CC3)cc2)c1=O [posaconazole],0-hour plasma concentration of posaconazole,"[1]; Subject 20, Treatment A",22.5 ng/mL
same,0-hour plasma concentration of posaconazole,"[1]; Subject 20, Treatment B",8.5 ng/mL
same,mean terminal t½,[1]; independent of treatment,about 22 hour
same,lipophilicity,[2],highly lipophilic
same,water solubility,[2],extremely low
same,antifungal activity,[3],potent
same,sedimentation of posaconazole,[4],not sedimented
